Publication PMC11845477, “Exploring the principles behind antibiotics with limited resistance” (Nature Communications, 2025)
Where a SMILES comes first, the peptide text is derived from it. Bridges are numbered along the chain shown (N, C = ends). [ ]: non-standard residue; d: D form. The star is where a group is joined. X1 = NC[C@@H](CC(=O)*)c1cccc(Cl)c1; X2 = CC[C@H](C)CCCCC(=O)*; Dab = NCC[C@H](N)C(=O)O; Dap = NC[C@H](N)C(=O)O

Tests used:
[1] = system: A. baumannii ATCC 17978 (SEN) and A. baumannii ATCC BAA-1605 (MDR); experiment: microbe, parasite or virus in culture; type: cell-based, Acinetobacter baumannii; settings: for MIC: across three biological replicates
Protocol: This study focused on multiple bacterial strains, as follows. For the FoR and ALE experiments, 2 strains per species were chosen: E. coli ATCC 25922, K. pneumoniae ATCC 10031, A. baumannii ATCC 17978, and P. aeruginosa ATCC BAA-3107 as sensitive (SEN) strains, and E. coli NCTC13846, K. pneumoniae ATCC 700603, A. baumannii ATCC BAA-1605 and P. aeruginosa LESB58 as multi-drug resistant (MDR) strains. Functional metagenomic screens were performed with E. coli ATCC 25922 and K. pneumoniae ATCC 10031 strains. To determine the dose-kill properties of the different antibiotics, an E. coli strain (ATCC 25922) expressing a yellow fluorescent protein (pZS2R, YFP, CHL^R) and a red fluorescent protein (pZS2R, mCherry, CHL^R) was used.
Unless otherwise indicated, cation-adjusted Mueller-Hinton Broth 2 (MHB, Millipore) medium was used throughout the study, except for SCH79797 (SCH).
A robotic liquid handling system was used to automatically prepare a 11 to 16-step serial dilution in 384-well microtiter plates (Greiner). A final concentration of 5 × 10^5 bacterial cells per mL were inoculated into each well containing 60 µL MHB medium. Bacterial cultures were incubated at 37 °C with continuous shaking (Infors shaker, 900 rpm with 3 mm throw) for 18 hours (2 replicates from each). Cell growth was monitored by measuring the optical density (OD600 values, using Biotek Synergy microplate reader). MIC was defined as the antibiotic concentration of complete growth inhibition (i.e., OD600 < 0.05). Relative MIC was calculated as follows:1 relativeMIC=MICevolved/MICancestor

[2] = system: E. coli BW25113: pUCacrAB; experiment: AcrAB-TolC efflux overexpression screen, relative MIC; type: cell-based, Escherichia coli; settings: pUCacrAB vs empty pUC118 control
Protocol: Fig. 6 The impact of AcrAB-TolC activity on antibiotic susceptibility. E. coli strains with AcrAB-TolC depletion (BW25113-ΔacrB) and overexpression (BW25113: pUCacrAB) were treated with various antibiotics, and the level of resistance was determined as minimum inhibitory concentration (MIC) relative to a wild-type strain, presented on a logarithmic scale (log2). Each bar represents the mean resistance level (susceptibility, i.e., level of resistance < 0; and resistance, i.e., level of resistance > 0) to antibiotics induced by acrAB overexpression (blue bars; E. coli with a multicopy plasmid of the acrAB genes (pUCacrAB)) and acrB deletion (red bars; mutant E. coli with acrB gene deletion (ΔacrB)) compared to the wild-type. Data are presented as mean values of 3 biological replicates ± SD. […] Detailed information on antibiotic and bacterial strain abbreviations is provided in Supplementary Data 1. Source data are provided as a Source Data file. For information on mode of action groups, refer to Table 1.
For the efflux deficiency screen, the ΔacrB mutant of E. coli K12 BW25113[86] and its equivalent wild-type control strain with intact gene were utilized. In contrast, BW25113 carrying a multicopy acrAB plasmid (pUCacrAB)[87] and its control strain harboring an empty pUC118 plasmid were used to overexpress the acrAB efflux system. According to established protocols via P1 transduction, the suitable acrB deletion mutant (ΔacrB BW25113) was created, while the pUCacrAB plasmid was kindly provided by Kunihiko Nishino and Akihito Yamaguchi (Osaka University, Osaka, Japan). In a prior study, both strains were employed. Since the copy number of the plasmid carrying the efflux pump is controlled by native promoters, external induction is unnecessary.
Antibiotic susceptibilities of these strains were evaluated using a modified version of the standard broth dilution method. In 96-well microtiter plates containing fresh MHB medium, or supplemented MS medium in case of SCH79797, ten-step serial dilutions of an antibiotic from a stock solution were made (2 wells per antibiotic concentration per strain). The two wells contained only supplemented media without any antibiotics […]. Strains were incubated overnight at 37 °C with continuous agitation. Additionally, plasmid containing strains were grown in the presence of 100 µg/mL ampicillin. The culture was diluted to yield a cell suspension with 5 ×10^5 cells/mL and then inoculated into the wells of the microtiter plate. To determine the medium’s background OD value, the first column of the 96-well plate contained solely MHB without inoculum. Prior to the measurement, the plates were incubated at 37 °C with continuous shaking at 900 rpm with 3 mm throw. OD600 values were determined in a microplate reader after 18 hours of incubation (Biotek Synergy 2). The minimum inhibitory concentration (MIC) was determined as the lowest concentration of antibiotic at which the OD600 values were less than 0.05 after subtracting the background value. The log2 of the relative MIC was computed using the following equation:2 log2relativeMICpUCacrAB=MICpUCacrAB/MICpUC118 3 log2relativeMICΔacrB=MICΔacrB/MICwt

[3] = Acinetobacter baumannii ATCC 17978 (AB-SEN), ancestor strain
[4] = Acinetobacter baumannii ATCC 17978 (AB-SEN), ancestor strain, sheet fig 2a
[5] = Acinetobacter baumannii, Acinetobacter baumannii ATCC 17978 (AB-SEN)
[6] = Acinetobacter baumannii, Acinetobacter baumannii ATCC BAA-1605 (AB-MDR)
[7] = Acinetobacter baumannii ATCC BAA 1605 (AB-MDR), ancestor strain, sheet fig 2a
[8] = AB-SEN, Acinetobacter baumannii ATCC 17978, ancestor strain
[9] = Acinetobacter baumannii ATCC 17978 (AB-SEN)
[10] = Acinetobacter baumannii ATCC BAA-1605 (AB-MDR)
[11] = ancestor AB-SEN (Acinetobacter baumannii ATCC 17978)

Molecule | MIC of ancestor [1, 4] | MIC [1, 5] | MIC [1, 6] | Relative MIC (log2) ([2]; replicate 1) | Relative MIC (log2) ([2]; replicate 2) | Relative MIC (log2) ([2]; replicate 3) | MIC [1, 9] | MIC [1, 10] | further results
CN[C@@H]1[C@@H](O[C@H]2O[C@H](CO)[C@@H](N)[C@H](O)[C@H]2O)OC2C[C@@H](N)[C@@H](O[C@H]3[C@H](O)[C@@H](O)[C@H](N)C[C@@H]3N)OC2[C@@H]1O (stereo partly shown) [Apramycin] | 4 mg/L | 4 mg/L | 8 mg/L | 0 | 0 | 0 | – | – | MIC of ancestor [1, 3]: 4 mg/L
Nc1nc(-n2cc(C(=O)O)c(=O)c3cc(F)c(N4CC(O)C4)c(Cl)c32)c(F)cc1F [Delafloxacin] | 0.0625 mg/L | 0.0625 mg/L | 8 mg/L | 2 | 2 | 2 | – | – | MIC of ancestor [1, 3]: 0.0625 mg/L
C[C@H]1c2cccc(O)c2C(=O)C2=C(O)[C@]3(O)C(=O)C(C(N)=O)=C(O)[C@@H](N(C)C)[C@@H]3[C@@H](O)[C@@H]21 [Doxycycline] | 0.25 mg/L | 0.25 mg/L | 8 mg/L | 0 | 0 | 0 | – | – | MIC of ancestor [1, 3]: 0.25 mg/L
CN(C)[C@@H]1C(O)=C(C(N)=O)C(=O)[C@@]2(O)C(O)=C3C(=O)c4c(O)c(NC(=O)CN5CCCC5)cc(F)c4C[C@H]3C[C@@H]12 [Eravacycline] | 0.0625 mg/L | 0.0625 mg/L | 2 mg/L | 0 | 0 | 0 | – | – | MIC of ancestor [1, 3]: 0.0625 mg/L; MIC of ancestor ([1]; Acinetobacter baumannii ATCC BAA 1605 (AB-MDR), ancestor strain): 2 mg/L; MIC of ancestor [1, 7]: 2 mg/L
CNC(C)C1CCC(N)C(OC2C(N)CC(N)C(OC3OCC(C)(O)C(NC)C3O)C2O)O1 (stereo not shown) [Gentamicin] | 0.5 mg/L | 0.5 mg/L | > 32 mg/L | 0 | 0 | 0 | – | – | MIC of ancestor [1, 8]: 0.5 mg/L
O=c1ccc2ncc(=O)n3c2n1C[C@H]3CN1CCC(NCc2cc3c(cn2)OCCC3)CC1 [Gepotidacin] | 2 mg/L | 2 mg/L | 32 mg/L | 2 | 2 | 2 | – | – | MIC of ancestor [1, 8]: 2 mg/L
C[C@@H](O)[C@H]1C(=O)N2C(C(=O)O)=C(S[C@@H]3CN[C@H](C(=O)N(C)C)C3)[C@H](C)[C@H]12 [Meropenem] | 1 mg/L | 1 mg/L | > 32 mg/L | – | – | – | – | – | MIC of ancestor [1, 8]: 1 mg/L
COc1c(N2C[C@@H]3CCCN[C@@H]3C2)c(F)cc2c(=O)c(C(=O)O)cn(C3CC3)c12 [Moxifloxacin] | – | – | 32 mg/L | – | – | – | – | – | –
CN(C)c1cc(CNCC(C)(C)C)c(O)c2c1C[C@H]1C[C@H]3[C@H](N(C)C)C(O)=C(C(N)=O)C(=O)[C@@]3(O)C(O)=C1C2=O [Omadacycline] | 0.5 mg/L | 0.5 mg/L | 16 mg/L | 0.585 | 0.585 | 0.585 | – | – | MIC of ancestor ([1]; Acinetobacter baumannii ATCC 17978 (AB-SEN), ancestor): 0.5 mg/L
CC[C@H](C)CCCCC(=O)N[C@@H](CCN)C(=O)N[C@H](C(=O)N[C@@H](CCN)C(=O)N[C@H]1CCNC(=O)[C@H]([C@@H](C)O)NC(=O)[C@H](CCN)NC(=O)[C@H](CCN)NC(=O)[C@H](CC(C)C)NC(=O)[C@@H](Cc2ccccc2)NC(=O)[C@H](CCN)NC1=O)[C@@H](C)O [Polymyxin B] (X2-[Dab]T[Dab][Dab][Dab][dF]L[Dab][Dab]T; lactam 4-C (inferred); N-terminus assumed) | – | – | – | 0 | 0 | 0 | 1 mg/L | 1 mg/L | –
CC(C)c1ccc(Cn2ccc3c4c(N)nc(NC5CC5)nc4ccc32)cc1 [SCH79797] | 4 mg/L | – | – | 1 | 1 | 1 | 4 mg/L | 4 mg/L | MIC of ancestor [1, 7]: 4 mg/L; MIC of ancestor ([1]; ancestor AB-MDR (Acinetobacter baumannii ATCC BAA 1605)): 4 mg/L; MIC of ancestor [1, 11]: 4 mg/L
CC(C)C[C@@H]1NC(=O)[C@@H](Cc2ccccc2)NC(=O)[C@H](CCN)NC(=O)[C@@H](NC(=O)[C@H](CN)NC(=O)[C@@H](NC(=O)C[C@H](CN)c2cccc(Cl)c2)[C@@H](C)O)CCNC(=O)[C@H]([C@@H](C)O)NC(=O)[C@H](CCN)NC(=O)[C@H](CCN)NC1=O [SPR206] (X1-T[Dap][Dab][Dab][dF]L[Dab][Dab]T; lactam 3-C (inferred); N-terminus assumed) | 0.125 mg/L | – | – | 0 | 0 | 0 | 0.125 mg/L | 0.125 mg/L | MIC of ancestor ([1]; A. baumannii ATCC 17978 (AB-SEN), ancestor strain): 0.125 mg/L; MIC of ancestor ([1]; A. baumannii ATCC BAA 1605 (AB-MDR), ancestor strain): 0.125 mg/L; MIC of ancestor [1, 7]: 0.125 mg/L; MIC of ancestor [1, 11]: 0.125 mg/L
C[C@@H](O)[C@H]1C(=O)N2C(C(=O)O)=C(S[C@H]3CC[S@@+]([O-])C3)S[C@H]12 [Sulopenem] | 1 mg/L | – | – | 0 | 0 | 0 | 1 mg/L | 32 mg/L | MIC of ancestor [1, 11]: 1 mg/L
C[C@@H]1CN2c3c(cc4c(N5C(=O)OC[C@@H]5C)noc4c3F)CC3(C(=O)NC(=O)NC3=O)[C@H]2[C@H](C)O1 [Zoliflodacin] | – | 8 mg/L | 16 mg/L | 2 | 2 | 2 | – | – | –
POL7306 | – | – | – | – | – | – | 1 mg/L | 1 mg/L | –
Tridecaptin M152-P3 | – | – | – | – | – | – | 8 mg/L | 8 mg/L | –
polymyxin-B | 1 mg/L | – | – | – | – | – | – | – | MIC of ancestor ([1]; Acinetobacter baumannii ATCC BAA 1605 (AB-MDR), ancestor): 1 mg/L; MIC of ancestor [1, 7]: 1 mg/L; MIC of ancestor [1, 11]: 1 mg/L
